According to patent publication US20220088195A1, “Prevention or mitigation of T-cell bispecific antibody-related adverse effects” (Hoffmann-La Roche Inc., priority 2020, published 2022):

Experiments:
Type in all cases: cell-based, human
[1] = test system: IFN-γ, TNF-α and IL-2 release; assay: Cytokine release in SKM-1 killing assay with HLA-A2 WT-1-TCB, dasatinib added after 24 hours (Luminex); conditions: 48 hours; 100 nM dasatinib added at 24 hours
Procedure: FIG. 3. In vitro killing assay set-up and timelines. PBMCs were co-cultured with SKM-1 target cells (E:T=10:1) and 10 nM HLA-A2 WT-1-TCB. Dasatinib (100 nM) was added after 24 hours of activation. PBMCs were labelled with CellTrace™ Violet (CTV) to allow T cell proliferation assessment.
FIG. 5. Cytokine release. Supernatants were collected from the assay of FIG. 3 at 24h and 48h, and cytokines (IFN-γ (A), TNF-α (B) and IL-2 (C)) measured using a multiplex kit (Luminex). Mean+/−SD of 3 donors.
To evaluate if dasatinib could act as a rapid and potent inhibitor of activated T cells, we first stimulated PBMCs on SKM-1 tumor cells with HLA-A2 WT-1-TCB for 24 hours. We then supplemented these activated effector cells with 100 nM dasatinib (FIG. 3).

Z138 target cells = assay: Two-stimulation killing assay, PBMCs + Z138 target cells + CD20-TCB; conditions: 100 nM dasatinib upon re-stimulation; 1 nM CD20-TCB
Procedure: FIG. 23. In vitro killing assay set-up and timelines. PBMCs were co-cultured with carboxyfluorescein succinimidyl ester (CFSE) labelled Z138 target cells (E:T=5:1) and […] 1 nM CD20-TCB for 20h. Activated PBMCs were washed and restimulated on fresh, CTV labelled Z138 target cells (E:T=5:1) and 1 nM CD20-TCB in the presence or absence of 100 nM dasatinib.
(§1) FIG. 24. Dead Z138 cells upon first and second stimulation with 1 nM CD20-TCB in the presence and absence of 100 nM dasatinib in the assay of FIG. 23, as measured by flow cytometry. Cells were collected 20h after the first and 24 h after the second stimulation and stained with live dead NIR dye. Mean of technical replicates+/−SD. N=3 donors.
as §1, with “25.” for “24.”, “upon” for “upon first and”, “collected” for “collected 20h after the first and”, “after” for “after the”, “Three donors D1-D3 (A-C).” for “N=3 donors.”
A similar re-stimulation experiment was performed with a different TCB, targeting CD20 (CD20-TCB (SEQ ID NOs 28-35, 48-59), 1 nM), and the killing of Z138 target cells measured after the first and second stimulation (FIG. 23).

MKN45 NLR target cells = assay: Reversibility killing assay with two and three stimulations (OFF/ON, ON/OFF/ON), MKN45 NLR + CEA-TCB, Incucyte
Procedure: FIG. 16. In vitro killing assay set-up and timelines. PBMCs were stimulated on MKN45 NLR (E:T=10:1) target cells with 1 nM CEA-TCB for 96 hours. Activated PBMCs were washed and restimulated on new MKN45 NLR target cells (E:T=10:1) with 1 nM CEA-TCB in the presence of 25 nM dasatinib for 72 hours. Activated PBMCs were washed to remove dasatinib and restimulated on new MKN45 NLR target cells (E:T=10:1) with 1 nM CEA-TCB (“ON/OFF/ON”, see upper row of table), or vice versa (“OFF/ON/OFF”, see lower row of table). Killing was followed by Incucyte®.
FIG. 17. Real time killing of MKN45 NLR target cells by CEA-TCB in the presence of 25 nM dasatinib (0-72 h) upon first stimulation and in the absence of 25 nM dasatinib (96-170 h) upon restimulation, in the assay of FIG. 16 (“OFF/ON”).
FIG. 19. Real time killing of MKN45 NLR target cells by CEA-TCB in the assay of FIG. 16 (“ON/OFF/ON”).
FIG. 21. CEA-TCB mediated target cell killing. (A) PBMCs were stimulated on MKN45 NLR (E:T=10:1) target cells with 1 nM CEA-TCB for 96 hours in the presence and absence of dasatinib. (B) Activated PBMCs were washed to remove dasatinib and restimulated on new MKN45 NLR target cells (E:T=10:1) with 1 nM CEA-TCB. Killing was followed by Incucyte®.
We then verified if dasatinib's effect is reversible upon its removal. Therefore we set-up a killing assay with two and three stimulations in the presence and absence of dasatinib and followed the killing kinetics using an Incucyte® system (FIG. 16). After each stimulation, effector cells were washed and re-stimulated on fresh MKN45 NLR target cells with 1 nM CEA TCB in the presence and absence of dasatinib allowing to mimic OFF/ON switch and ON/OFF/ON switch.
Lastly, we evaluated if the effect of dasatinib was reversible on activated T cells. Consequently, we supplemented the media with 25 nM dasatinib upon the second stimulation with 1 nM CEA-TCB to prevent killing from activated T cells and then removed the dasatinib upon third stimulation with 1 nM CEA-TCB to verify if killing would be restored. […] We concluded that the effect of dasatinib in the prevention of T cell activation and cytotoxicity is reversible.
For T-cell engaging antibodies, cytokine release peaks are higher upon the first treatment than after subsequent treatments. We were curious to see if low doses of dasatinib could prevent cytokine release while minimally affecting TCB-efficacy upon first stimulation. In killing assays as described in FIG. 16, the cytokine levels upon first treatment with 1 nM CEA-TCB in the presence of 6.25 nM and 12.5 nM dasatinib and upon second treatment with 1 nM CEA-TCB in the absence of dasatinib were measured in the supernatants. […] Its removal upon second stimulation may also balance the cytokine release and restore TCB-induced cytotoxicity due to the reversibility properties of dasatinib.

SUDLH-8 tumor cells = assay: Killing assay, PBMCs + CTV labelled SUDLH-8 cells + CD19-TCB, flow cytometry 24 hrs; conditions: 100 nM dasatinib, monohydrate
Procedure: FIG. 26. In vitro killing assay set-up. PBMCs were co-cultured with CellTrace™ Violet (CTV)-labelled SUDLH-8 tumor cells (E:T=10:1) and escalating concentrations of CD19-TCB in the presence and absence of 100 nM dasatinib.
FIG. 27. […] The killing of SUDLH-8 tumor cells was measured by flow cytometry using a Live Dead Near InfraRed (NIR) dye allowing for exclusion of dead cells (24 hrs) in the assay described in FIG. 26. Mean of n=3 donors+SD. One way ANOVA, Friedman test, p-value: 0.1234 (ns), 0.0332 (*), 0.0021 (**), 0.0001 (***), <0.0001 (****).
The killing of CTV labelled SUDLH-8 cells was measured by flow cytometry using a Live/Dead Near Infra Red (NIR) dye. […] The expression of CD69 and CD25 were measured on CD4+ (FIG. 28) and CD8+(FIG. 29) T cells by flow cytometry as a readout for T cell activation. […] Lastly, the cytokine levels were analyzed in the supernatants of the assay by Luminex to evaluate the effect of dasatinib on CD19-TCB-induced cytokine release (FIGS. 30 and 31).

Cc1nc(Nc2ncc(C(=O)Nc3c(C)cccc3Cl)s2)cc(N2CCN(CCO)CC2)n1 [dasatinib, N-(2-chloro-6-methylphenyl)-2-[[6-[4-(2-hydroxyethyl)-1-piperazinyl]-2-methyl-4-pyrimidinyl]amino]-5-thiazole carboxamide monohydrate]
release of IFN-γ, TNF-α and IL-2 from activated T cells [1]: rapidly prevented the release of cytokines | killing of CTV labelled Z138 target cells (ON/OFF versus ON/ON) (Z138 target cells): effectively prevented the killing | killing induced by 1 nM CEA-TCB during first stimulation (MKN45 NLR target cells; 6.25 nM and 12.5 nM dasatinib): only partially inhibited the killing | killing of MKN45 NLR target cells (OFF/ON) (MKN45 NLR target cells; 25 nM dasatinib during first stimulation, removed for second, 1 nM CEA TCB): killing inhibition which was then reversed upon dasatinib removal | killing of MKN45 cells (ON/OFF/ON) (MKN45 NLR target cells; 25 nM dasatinib upon second stimulation, removed upon third, 1 nM CEA-TCB): inhibited with the addition of 25 nM upon second stimulation and restored upon third stimulation | killing upon removal of dasatinib during second stimulation (MKN45 NLR target cells; after 6.25 nM and 12.5 nM dasatinib in first stimulation): killing was restored | killing of SUDLH-8 tumor cells by CD19-TCB (SUDLH-8 tumor cells): prevented killing
